Blank lines part the entries; values can stand above or below the molecule they belong to.
Assays:
[1] = Manufacturability / solubilization of HL217 eye drop solution (appearance); type: physicochemical; details: pH 6.5
Procedure: That is, according to the components and amounts shown in Table 1, HL217, polyethylene glycol 400, glycerin, EDTA, and boric acid were added to the sterile purified water under stirring. The pH was adjusted to 6.5 with an aqueous hydrochloric acid solution and/or an aqueous sodium hydroxide solution; and then sterile purified water was added to the solution, so as to adjust the final volume. The amounts in Table 1 represent the amount of each component per 1 mL of the total volume.
Since the maximum allowable concentration of the U.S. Food and Drug Administration for polyethylene glycol 400 is 50 mg/ml in an eye drop formulation, the amount of polyethylene glycol 400 was adjusted to 1/10 (i.e., 15.0 mg) and correspondingly the amount of glycerin was also adjusted to 1/10 (i.e., 12.0 mg) for evaluating the solubilization of HL217. […] Specifically, according to the components and amounts shown in Table 2, HL217, polyethylene glycol 400, glycerin, EDTA, and boric acid were added to the sterile purified water under stirring. The pH was adjusted to 4.5 with an aqueous hydrochloric acid solution and/or an aqueous sodium hydroxide solution; and then sterile purified water was added to the solution, so as to adjust the final volume. The amounts in Table 2 represent the amount of each component per 1 mL of the total volume. […]

[2] = system: mice with very low-density lipoprotein receptor (vldlr) gene knockout; experiment: Inhibitory efficacy against vascular leakage in animal model of macular degeneration (FIG. 1); type: in vivo; details: single intravitreal administration of 1 μl (50 ng/μl ranibizumab) in each eye
Procedure: Lucentis™ injection (Norvatis, Basel, Switzerland) was used as a positive control.
The control group was instilled with 1 drop of sterile physiological saline, in each eye of normal mice (n=8), twice daily for 3 weeks. The AMD-induced group was instilled with 1 drop of sterile physiological saline, in each eye of mice with vldlr gene knockout (vldlr −/− mice), twice daily for 3 weeks. The positive control group received 1 μl of Lucentis™ injection (containing 50 ng/μl of ranibizumab) in each eye of vldlr −/− mice, by a single intravitreal administration using a Hamiltion syringe (Hamilton company, Reno, NV, USA).
The following experiments were carried out In order to evaluate any abnormality of retinal blood vessels, such as angiogenesis formation and abnormal blood vessel permeability. […] The isolated retina was placed on a slide, dropped with an aqueous mounting medium (Fluoromount™, Sigma, St. Louis, MO, USA) and then observed under a fluorescence microscope. For quantitative analysis of tracer dye, blood was collected from the heart 10 minutes after the dye injection, perfused with sterile PBS to remove residual dye from the blood vessels, and then the eyes were extracted to isolate the retina. The isolated retina was homogenized with 100 μL of PBS and then centrifuged to obtain the supernatant, in which the amount of FITC-dextran was then measured using a spectrofluorophotometer. […]

Appearance [1]: precipitates were generated
Molecule: COC(OC)[C@]1(C)Oc2ccc(N)cc2[C@H](N(Cc2ncc[nH]2)c2ccc(Cl)cc2)[C@H]1O [HL217, (2R,3R,4S)-6-amino-4-[N-(4-chlorophenyl)-N-(1H-imidazol-2-ylmethyl)amino]-3-hydroxy-2-methyl-2-dimethoxymethyl-3,4-dihydro-2H-1-benzopyran]

B1: Lucentis™ injection: Lucentis™ injection (Norvatis) containing 50 ng/μl of ranibizumab, used as a positive control (antibody, chains of the INN, looked up, V domains shown)
VH: EVQLVESGGGLVQPGGSLRLSCAASGYDFTHYGMNWVRQAPGKGLEWVGWINTYTGEPTYAADFKRRFTFSLDTSKSTAYLQMNSLRAEDTAVYYCAKYPYYYGTSHWYFDVWGQGTLVTVSS
VL: DIQLTQSPSSLSASVGDRVTITCSASQDISNYLNWYQQKPGKAPKVLIYFTSSLHSGVPSRFSGSGSGTDFTLTISSLQPEDFATYYCQQYSTVPWTFGQGTKVEIK
efficacy (vascular leakage and pathogenic angiogenesis) [2]: significant efficacy only at the 2nd week

Source: US11771647B2, “Eye drops in form of solution comprising benzopyran derivative or pharmaceutically acceptable salt thereof” (HANLIM PHARMACEUTICAL CO., LTD., priority 2018, dated 2023)
